From patent US12479843B2, “Spiro ring-containing quinazoline compounds” (WIGEN BIOMEDICINE TECHNOLOGY (SHANGHAI) CO., LTD., priority 2019, dated 2025)

How the values were obtained:
H358 cells = assay: Antiproliferative activity against H358 cells (Cell Titer Glow, ultra-low attachment plate); type: cell-based; details: Homo sapiens, NCI-H358, 72 h, 96-well ultra-low attachment plate, three days after addition of compound, Cell Titer Glow
Method: 2500 H358 cells were seeded in a 96-well ultra-low attachment plate (corning, 7007). After one day of growth, a serially diluted compound (a maximum concentration of 5 μM, 5-fold dilution, a total of five doses) was added. Three days after the addition of the compound, Cell Titer Glow (Promega, G9681) was added to evaluate pellet growth, and the IC50 value was calculated.

pERK level in H358 cells = assay: pERK and ERK protein content assay in H358 cells (ELISA); type: cell-based; details: Homo sapiens, NCI-H358, compound 1 μM, 24 h, pERK/ERK ratio compared with DMSO group, read-out: Inhibition rate (%) of pERK level
Procedure, shortened: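 H358 cells grown one day, then treated 24 h with compound at 1 μM. pERK and ERK in lysates measured by ELISA; pERK/ERK ratio expressed as percent inhibition versus DMSO.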

## C=C(F)C(=O)N1CC2(CCN(c3nc(N4CCC5(CCN(CCOC)CC5)C4)nc4c(OCC(F)(F)F)c(-c5c(C)ccc6[nH]ncc56)c(C5CC5)cc34)CC2)C1 [Compound 102]
H358 cells
  IC50: < 300 nM
pERK level in H358 cells
  inhibition at 1 µM: > 90%

## C=CC(=O)N1CC2(CCN(c3nc(N4CCC5(CC4)CN(CCOC)C5)nc4c(OCC(F)(F)F)c(-c5c(C)ccc6[nH]ncc56)c(C5CC5)cc34)CC2)C1 [Compound 103]
H358 cells
  IC50: < 300 nM
pERK level in H358 cells
  inhibition at 1 µM: > 90%

## C=C(F)C(=O)N1CC2(CCN(c3nc(N4CCC5(CC4)CN(CCOC)C5)nc4c(OCC(F)(F)F)c(-c5c(C)ccc6[nH]ncc56)c(C5CC5)cc34)CC2)C1 [Compound 104]
H358 cells
  IC50: 300 to 1000 nM
pERK level in H358 cells
  inhibition at 1 µM: 50 to 90%

## C=CC(=O)N1CC2(CCN(c3nc(N4CCC5(CCN(CCOC)C5)CC4)nc4c(OCC(F)(F)F)c(-c5c(C)ccc6[nH]ncc56)c(C5CC5)cc34)CC2)C1 [Compound 105]
H358 cells
  IC50: < 300 nM
pERK level in H358 cells
  inhibition at 1 µM: > 90%

## C=C(F)C(=O)N1CC2(CCN(c3nc(N4CCC5(CCN(CCOC)C5)CC4)nc4c(OCC(F)(F)F)c(-c5c(C)ccc6[nH]ncc56)c(C5CC5)cc34)CC2)C1 [Compound 106]
H358 cells
  IC50: 300 to 1000 nM
pERK level in H358 cells
  inhibition at 1 µM: 50 to 90%

## C=CC(=O)N1CC2(CCN(c3nc(N4CCC5(CCN(CCOC)CC5)CC4)nc4c(OCC(F)(F)F)c(-c5c(C)ccc6[nH]ncc56)c(C5CC5)cc34)CC2)C1 [Compound 107]
H358 cells
  IC50: 300 to 1000 nM
pERK level in H358 cells
  inhibition at 1 µM: 50 to 90%

## C=C(F)C(=O)N1CC2(CCN(c3nc(N4CCC5(CCN(CCOC)CC5)CC4)nc4c(OCC(F)(F)F)c(-c5c(C)ccc6[nH]ncc56)c(C5CC5)cc34)CC2)C1 [Compound 108]
H358 cells
  IC50: 300 to 1000 nM
pERK level in H358 cells
  inhibition at 1 µM: 50 to 90%

## C=CC(=O)N1CC2(CCN(c3nc(OC4CN(C)C4)nc4c(OCC(F)(F)F)c(-c5c(C)ccc6[nH]ncc56)c(C5CC5)cc34)CC2)C1 [Compound 109]
H358 cells
  IC50: < 300 nM
pERK level in H358 cells
  inhibition at 1 µM: > 90%

## C=C(F)C(=O)N1CC2(CCN(c3nc(OC4CN(C)C4)nc4c(OCC(F)(F)F)c(-c5c(C)ccc6[nH]ncc56)c(C5CC5)cc34)CC2)C1 [Compound 110]
H358 cells
  IC50: < 300 nM
pERK level in H358 cells
  inhibition at 1 µM: > 90%

## C=CC(=O)N1CC2(CCN(c3nc(OC4CN(C5COC5)C4)nc4c(OCC(F)(F)F)c(-c5c(C)ccc6[nH]ncc56)c(C5CC5)cc34)CC2)C1 [Compound 111]
H358 cells
  IC50: < 300 nM
pERK level in H358 cells
  inhibition at 1 µM: > 90%

## C=C(F)C(=O)N1CC2(CCN(c3nc(OC4CN(C5COC5)C4)nc4c(OCC(F)(F)F)c(-c5c(C)ccc6[nH]ncc56)c(C5CC5)cc34)CC2)C1 [Compound 112]
H358 cells
  IC50: 300 to 1000 nM
pERK level in H358 cells
  inhibition at 1 µM: 50 to 90%

## C=CC(=O)N1CC2(CCN(c3nc(OC4CN(CCOC)C4)nc4c(OCC(F)(F)F)c(-c5c(C)ccc6[nH]ncc56)c(C5CC5)cc34)CC2)C1 [Compound 113]
H358 cells
  IC50: < 300 nM
pERK level in H358 cells
  inhibition at 1 µM: > 90%

## C=C(F)C(=O)N1CC2(CCN(c3nc(OC4CN(CCOC)C4)nc4c(OCC(F)(F)F)c(-c5c(C)ccc6[nH]ncc56)c(C5CC5)cc34)CC2)C1 [Compound 114]
H358 cells
  IC50: < 300 nM
pERK level in H358 cells
  inhibition at 1 µM: > 90%

## C=CC(=O)N1CC2(CCN(c3nc(OC[C@@H]4COCCN4C)nc4c(OCC(F)(F)F)c(-c5c(C)ccc6[nH]ncc56)c(C5CC5)cc34)CC2)C1 [Compound 115]
H358 cells
  IC50: 300 to 1000 nM
pERK level in H358 cells
  inhibition at 1 µM: 50 to 90%

## C=C(F)C(=O)N1CC2(CCN(c3nc(OC[C@@H]4COCCN4C)nc4c(OCC(F)(F)F)c(-c5c(C)ccc6[nH]ncc56)c(C5CC5)cc34)CC2)C1 [Compound 116]
H358 cells
  IC50: 300 to 1000 nM
pERK level in H358 cells
  inhibition at 1 µM: 50 to 90%

## C=CC(=O)N1CC2(CCN(c3nc(OC[C@@H]4COCCN4CCOC)nc4c(OCC(F)(F)F)c(-c5c(C)ccc6[nH]ncc56)c(C5CC5)cc34)CC2)C1 [Compound 117]
H358 cells
  IC50: < 300 nM
pERK level in H358 cells
  inhibition at 1 µM: > 90%

## C=C(F)C(=O)N1CC2(CCN(c3nc(OC[C@@H]4COCCN4CCOC)nc4c(OCC(F)(F)F)c(-c5c(C)ccc6[nH]ncc56)c(C5CC5)cc34)CC2)C1 [Compound 118]
H358 cells
  IC50: < 300 nM
pERK level in H358 cells
  inhibition at 1 µM: > 90%

## C=CC(=O)N1CC2(CCN(c3nc(OC4C5CC4CN(CCOC)C5)nc4c(OCC(F)(F)F)c(-c5c(C)ccc6[nH]ncc56)c(C5CC5)cc34)CC2)C1 (centres unmarked) [Compound 119]
H358 cells
  IC50: < 300 nM
pERK level in H358 cells
  inhibition at 1 µM: 50 to 90%

## C=C(F)C(=O)N1CC2(CCN(c3nc(OC4C5CC4CN(CCOC)C5)nc4c(OCC(F)(F)F)c(-c5c(C)ccc6[nH]ncc56)c(C5CC5)cc34)CC2)C1 (centres unmarked) [Compound 120]
H358 cells
  IC50: 300 to 1000 nM
pERK level in H358 cells
  inhibition at 1 µM: 50 to 90%

## C=CC(=O)N1CC2(CCN(c3nc(OC4CC5CC4CN5CCOC)nc4c(OCC(F)(F)F)c(-c5c(C)ccc6[nH]ncc56)c(C5CC5)cc34)CC2)C1 (centres unmarked) [Compound 121]
H358 cells
  IC50: < 300 nM
pERK level in H358 cells
  inhibition at 1 µM: 50 to 90%

## C=C(F)C(=O)N1CC2(CCN(c3nc(OC4CC5CC4CN5CCOC)nc4c(OCC(F)(F)F)c(-c5c(C)ccc6[nH]ncc56)c(C5CC5)cc34)CC2)C1 (centres unmarked) [Compound 122]
H358 cells
  IC50: 300 to 1000 nM
pERK level in H358 cells
  inhibition at 1 µM: 50 to 90%

## C=CC(=O)N1CC2(CCN(c3nc(OC4CC5(C4)CN(C)C5)nc4c(OCC(F)(F)F)c(-c5c(C)ccc6[nH]ncc56)c(C5CC5)cc34)CC2)C1 [Compound 123]
H358 cells
  IC50: < 300 nM
pERK level in H358 cells
  inhibition at 1 µM: > 90%

## C=C(F)C(=O)N1CC2(CCN(c3nc(OC4CC5(C4)CN(C)C5)nc4c(OCC(F)(F)F)c(-c5c(C)ccc6[nH]ncc56)c(C5CC5)cc34)CC2)C1 [Compound 124]
H358 cells
  IC50: < 300 nM
pERK level in H358 cells
  inhibition at 1 µM: > 90%

## C=CC(=O)N1CC2(CCN(c3nc(OC4CC5(C4)CN(CCOC)C5)nc4c(OCC(F)(F)F)c(-c5c(C)ccc6[nH]ncc56)c(C5CC5)cc34)CC2)C1 [Compound 125]
H358 cells
  IC50: < 300 nM
pERK level in H358 cells
  inhibition at 1 µM: > 90%

## C=C(F)C(=O)N1CC2(CCN(c3nc(OC4CC5(C4)CN(CCOC)C5)nc4c(OCC(F)(F)F)c(-c5c(C)ccc6[nH]ncc56)c(C5CC5)cc34)CC2)C1 [Compound 126]
H358 cells
  IC50: < 300 nM
pERK level in H358 cells
  inhibition at 1 µM: > 90%

## C=CC(=O)N1CC2(CCN(c3nc(OC4CC5(C4)CN(C4COC4)C5)nc4c(OCC(F)(F)F)c(-c5c(C)ccc6[nH]ncc56)c(C5CC5)cc34)CC2)C1 [Compound 127]
H358 cells
  IC50: < 300 nM
pERK level in H358 cells
  inhibition at 1 µM: > 90%

## C=C(F)C(=O)N1CC2(CCN(c3nc(OC4CC5(C4)CN(C4COC4)C5)nc4c(OCC(F)(F)F)c(-c5c(C)ccc6[nH]ncc56)c(C5CC5)cc34)CC2)C1 [Compound 128]
H358 cells
  IC50: < 300 nM
pERK level in H358 cells
  inhibition at 1 µM: > 90%

## C=CC(=O)N1CC2(CCN(c3nc(OC4CC5(CCN(C)CC5)C4)nc4c(OCC(F)(F)F)c(-c5c(C)ccc6[nH]ncc56)c(C5CC5)cc34)CC2)C1 [Compound 129]
H358 cells
  IC50: < 300 nM
pERK level in H358 cells
  inhibition at 1 µM: > 90%

## C=C(F)C(=O)N1CC2(CCN(c3nc(OC4CC5(CCN(C)CC5)C4)nc4c(OCC(F)(F)F)c(-c5c(C)ccc6[nH]ncc56)c(C5CC5)cc34)CC2)C1 [Compound 130]
H358 cells
  IC50: < 300 nM
pERK level in H358 cells
  inhibition at 1 µM: > 90%

## C=C(F)C(=O)N1CC2(CCN(c3nc(OC4CC5(CCN(CCOC)CC5)C4)nc4c(OCC(F)(F)F)c(-c5c(C)ccc6[nH]ncc56)c(C5CC5)cc34)CC2)C1 [Compound 132]
H358 cells
  IC50: < 300 nM
pERK level in H358 cells
  inhibition at 1 µM: > 90%

## C=CC(=O)N1CC2(CCN(c3nc(OC4CC5(CCN(C6COC6)CC5)C4)nc4c(OCC(F)(F)F)c(-c5c(C)ccc6[nH]ncc56)c(C5CC5)cc34)CC2)C1 [Compound 133]
H358 cells
  IC50: < 300 nM
pERK level in H358 cells
  inhibition at 1 µM: > 90%

## C=C(F)C(=O)N1CC2(CCN(c3nc(OC4CC5(CCN(C(C)CC)CC5)C4)nc4c(OCC(F)(F)F)c(-c5c(C)ccc6[nH]ncc56)c(C5CC5)cc34)CC2)C1 (centres unmarked) [Compound 134]
H358 cells
  IC50: < 300 nM
pERK level in H358 cells
  inhibition at 1 µM: > 90%

## C=CC(=O)N1CC2(CCN(c3nc(OC4CCC5(CC4)CN(C)C5)nc4c(OCC(F)(F)F)c(-c5c(C)ccc6[nH]ncc56)c(C5CC5)cc34)CC2)C1 [Compound 135]
H358 cells
  IC50: 300 to 1000 nM
pERK level in H358 cells
  inhibition at 1 µM: 50 to 90%

## C=C(F)C(=O)N1CC2(CCN(c3nc(OC4CCC5(CC4)CN(C)C5)nc4c(OCC(F)(F)F)c(-c5c(C)ccc6[nH]ncc56)c(C5CC5)cc34)CC2)C1 [Compound 136]
H358 cells
  IC50: 300 to 1000 nM
pERK level in H358 cells
  inhibition at 1 µM: 50 to 90%

## C=CC(=O)N1CC2(CCN(c3nc(OC4CCC5(CC4)CN(CCOC)C5)nc4c(OCC(F)(F)F)c(-c5c(C)ccc6[nH]ncc56)c(C5CC5)cc34)CC2)C1 [Compound 137]
H358 cells
  IC50: < 300 nM
pERK level in H358 cells
  inhibition at 1 µM: > 90%

## C=C(F)C(=O)N1CC2(CCN(c3nc(OC4CCC5(CC4)CN(CCOC)C5)nc4c(OCC(F)(F)F)c(-c5c(C)ccc6[nH]ncc56)c(C5CC5)cc34)CC2)C1 [Compound 138]
H358 cells
  IC50: < 300 nM
pERK level in H358 cells
  inhibition at 1 µM: > 90%

## C=C(F)C(=O)N1CC2(CCN(c3nc(N4CC(N(C)C)C4)nc4c(OCC(F)(F)F)c(-c5c(C)ccc6[nH]ncc56)c(C5CC5)cc34)CC2)C1 [Compound 139]
H358 cells
  IC50: < 300 nM
pERK level in H358 cells
  inhibition at 1 µM: > 90%
